The source made the active and inactive calls. The calls are words filed in the database; no cut-off is given here.
How the values were obtained:
Influenza A virus [1] = experiment: Antiviral activity against Influenza A virus (A/California/07/2009(H1N1)) infected in BALB/c mouse assessed as protection from virus-induced death at 12 umol/kg/day, intranasally administered bid on days 1 to 4 and day 0 of infection measured over 14 days; format: functional, organism-based
[2] = target: Neuraminidase (Influenza A virus (strain A/Wilson-Smith/1933 H1N1) (Influenza A virus(strain A/WS/1933 H1N1)), UniProt P03470); experiment: Inhibition of Influenza A virus A/WSN/1933(H1N1)) neuraminidase in the presence of 2'-(4-methyl-umbelliferyl)-alphaD-N-acetylneuraminic acid substrate after 10 mins by fluorometric assay
MDCK = experiment: Cytotoxicity against MDCK cells at 100 uM; format: cell-based, Canis lupus familiaris; settings: dog
RAW264.7 [3] = experiment: Antiinflammatory activity in LPS-activated mouse RAW264.7 cells assessed as inhibition of LPS induced TNFalpha production treated 30 mins prior to LPS challenge measured after 6 hrs by RT-PCR analysis; format: functional, cell-based
Influenza A virus [4] = experiment: Antiviral activity against Influenza A virus (A/WSN/1933(H1N1)) infected in MDCK cells assessed as inhibition of virus induced cytopathic effect; format: functional, organism-based
RAW264.7 [5] = experiment: Antiinflammatory activity in LPS-activated mouse RAW264.7 cells assessed as inhibition of LPS induced IL6 production treated 30 mins prior to LPS challenge measured after 6 hrs by RT-PCR analysis; format: functional, cell-based
Influenza A virus [6] = experiment: Antiviral activity against Influenza A virus (A/California/07/2009(H1N1)) infected in BALB/c mouse assessed as protection from virus-induced death at 1.2 umol/kg/day, intranasally administered bid on days 1 to 4 and day 0 of infection measured after 12 days; format: functional, organism-based
Mus musculus [7] = experiment: Antiinflammatory activity in mouse infected with Influenza A virus (A/VietNam/1194/2004(H5N1)) NIBRG-14 assessed as reduction in IFN-gamma level in serum at 12 umol/kg/day, intranasally administered after 72 hrs by ELISA; format: functional, organism-based
Mus musculus [8] = experiment: Antiinflammatory activity in mouse infected with Influenza A virus (A/VietNam/1194/2004(H5N1)) NIBRG-14 assessed as reduction in IL6 level in serum at 12 umol/kg/day, intranasally administered after 72 hrs by ELISA; format: functional, organism-based
Influenza A virus [9] = experiment: Antiviral activity against Influenza A virus (A/VietNam/1194/2004(H5N1)) NIBRG-14 infected in BALB/c mouse assessed as protection from virus-induced death at 12 umol/kg/day, intranasally administered bid on days 1 to 4 and day 0 of infection measured over 14 days; format: functional, organism-based
Plasma [10] = experiment: Metabolic stability in Sprague-Dawley rat plasma assessed as release of zanamivir and caffiec acid after 24 hrs by LC-QTOF MS analysis; format: ADME, cell-free
Plasma [11] = experiment: Metabolic stability in Sprague-Dawley rat plasma assessed as release of zanamivir and caffiec acid after 24 hrs by MALDI-TOF analysis; format: ADME, cell-free
Influenza A virus [12] = experiment: Antiviral activity against recombinant Influenza A virus (A/VietNam/1194/2004(H5N1)) NIBRG-14 assessed as inhibition of virus induced cytopathic effect; format: functional, organism-based
Influenza A virus [13] = experiment: Antiviral activity against Influenza A virus (A/California/07/2009(H1N1)) infected in BALB/c mouse assessed as protection from virus-induced death at 1.2 umol/kg/day, intranasally administered bid on days 1 to 4 and day 0 of infection measured after 14 days; format: functional
Influenza A virus [14] = experiment: Ratio of zanamivir EC50 to compound EC50 for Influenza A virus (A/VietNam/1194/2004(H5N1)) NIBRG-14; format: functional
Influenza A virus [15] = experiment: Antiviral activity against Influenza A virus (A/California/07/2009(H1N1)) infected in BALB/c mouse assessed as protection from virus-induced death at 0.12 umol/kg/day, intranasally administered bid on days 1 to 4 and day 0 of infection measured over 14 days; format: functional
Influenza A virus [16] = experiment: Antiviral activity against Influenza A virus (A/California/07/2009(H1N1)) infected in BALB/c mouse assessed as protection from virus-induced death at 0.012 umol/kg/day, intranasally administered bid on days 1 to 4 and day 0 of infection measured over 14 days; format: functional
Plasma [17] = experiment: Metabolic stability in Sprague-Dawley rat plasma assessed as formation of compound 6 after 24 hrs by LC-QTOF MS analysis; format: ADME, cell-free
Plasma [18] = experiment: Metabolic stability in Sprague-Dawley rat plasma assessed as formation of compound 6 after 24 hrs by MALDI-TOF analysis; format: ADME, cell-free
Plasma [19] = experiment: Metabolic stability in Sprague-Dawley rat plasma assessed as compound degradation after 24 hrs by MALDI-TOF analysis; format: ADME, cell-free
Influenza A virus [20] = experiment: Antiviral activity against Influenza A virus (A/California/07/2009(H1N1)) infected in BALB/c mouse assessed as protection from virus-induced death at 0.0012 umol/kg/day, intranasally administered bid on days 1 to 4 and day 0 of infection measured over 14 days; format: functional, organism-based
Plasma [21] = experiment: Metabolic stability in Sprague-Dawley rat plasma assessed as compound degradation after 24 hrs by LC-QTOF MS analysis; format: ADME, cell-free
Plasma [22] = experiment: Metabolic stability in Sprague-Dawley rat plasma after 24 hrs by LC-QTOF MS analysis; format: ADME, cell-free
Influenza A virus [23] = experiment: Antiviral activity against Influenza A virus (A/VietNam/1194/2004(H5N1)) NIBRG-14 infected in BALB/c mouse assessed as protection from virus-induced death at 1.2 umol/kg/day, intranasally administered bid on days 1 to 4 and day 0 of infection measured over 14 days; format: functional, organism-based
Plasma [24] = experiment: Metabolic stability in Sprague-Dawley rat plasma after 24 hrs by MALDI-TOF analysis; format: ADME, cell-free

Neuraminidase (Influenza A virus (strain A/Wilson-Smith/1933 H1N1) (Influenza A virus(strain A/WS/1933 H1N1)), UniProt P03470), sequence (P03470 whole entry): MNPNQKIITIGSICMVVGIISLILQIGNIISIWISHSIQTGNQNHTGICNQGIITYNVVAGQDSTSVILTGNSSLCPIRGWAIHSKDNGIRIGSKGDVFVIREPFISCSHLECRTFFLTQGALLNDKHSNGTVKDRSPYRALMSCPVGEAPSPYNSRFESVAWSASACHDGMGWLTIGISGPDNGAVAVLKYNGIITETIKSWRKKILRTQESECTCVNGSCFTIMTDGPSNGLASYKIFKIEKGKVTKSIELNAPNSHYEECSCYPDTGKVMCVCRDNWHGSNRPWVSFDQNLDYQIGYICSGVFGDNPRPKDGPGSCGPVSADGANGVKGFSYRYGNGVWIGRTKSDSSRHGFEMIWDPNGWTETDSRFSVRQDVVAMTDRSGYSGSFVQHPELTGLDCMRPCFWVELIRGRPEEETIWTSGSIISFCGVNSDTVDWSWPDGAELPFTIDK

| SMILES | IC50 [2] | Activity (MDCK) | EC50 (Influenza A virus [4]) | further results |
| --- | --- | --- | --- | --- |
| Nc1ccc(O)c(C(=O)O)c1 [MESALAMINE] | > 100000 nM | Non-toxic | > 100000 nM | Activity (Influenza A virus [1]): Active; Activity (RAW264.7 [3]): Dose-dependent effect; Activity (RAW264.7 [5]): Dose-dependent effect |
| O=C(O)/C=C/c1ccc(O)c(O)c1 [CAFFEIC ACID] | > 100000 nM | Non-toxic | > 100000 nM | Activity (Influenza A virus [1]): Active; Activity (RAW264.7 [3]): Dose-dependent effect; Activity (Influenza A virus [6]): inactive; Activity (RAW264.7 [5]): Dose-dependent effect |
| CC(=O)N[C@H]1[C@H]([C@H](OC(=O)NCCCOC(=O)c2ccc(O)c(O)c2)[C@H](O)CO)OC(C(=O)O)=C[C@@H]1NC(=N)N | 2.9 nM | Non-toxic | 53 nM |  |
| CC(=O)N[C@H]1[C@H]([C@H](O)[C@H](O)CO)OC(C(=O)O)=C[C@@H]1N=C(N)N [ZANAMIVIR] |  | Non-toxic |  |  |
| CC(=O)N[C@H]1[C@H]([C@H](O)[C@H](O)CO)OC(C(=O)O)=C[C@@H]1NC(=N)N [ZANAMIVIR] |  |  | 3.5 nM | Activity (Influenza A virus [1]): Active; Activity (Mus musculus [7]): Active; Activity (Mus musculus [8]): Active; Activity (Influenza A virus [6]): inactive; Activity (Influenza A virus [9]): inactive |
| CC(=O)N[C@H]1[C@H]([C@H](O)[C@H](O)CO)OC(C(=O)OCCCOC(=O)/C=C/c2ccc(O)c(O)c2)=C[C@@H]1NC(=N)N | 2850 nM | Non-toxic | 25 nM | Stability (Plasma [10]): Unstable; Stability (Plasma [11]): Unstable |
| CC(=O)N[C@H]1[C@H]([C@H](OC(=O)NCCCOC(=O)/C=C/c2ccc3c(c2)OCO3)[C@H](O)CO)OC(C(=O)O)=C[C@@H]1NC(=N)N | 5.4 nM | Non-toxic | 66 nM |  |
| CC(=O)N[C@H]1[C@H]([C@H](OC(=O)NCCCOC(=O)/C=C/c2ccc(O)c(O)c2)[C@H](O)CO)OC(C(=O)O)=C[C@@H]1NC(=N)N | 2.9 nM | Non-toxic | 1.4 nM | EC50 (Influenza A virus [12]): 50 nM; Activity (Influenza A virus [13]): Active; Ratio EC50 (Influenza A virus [14]): 13; Activity (Influenza A virus [1]): Active; Activity (Influenza A virus [15]): Active; Activity (Influenza A virus [16]): 40%; Activity (Mus musculus [7]): Active; Activity (RAW264.7 [3]): Dose-dependent effect; Activity (Mus musculus [8]): Active; Stability (Plasma [17]): Unstable; Stability (Plasma [18]): Unstable; Stability (Plasma [19]): Unstable; Activity (Influenza A virus [9]): Active; Activity (RAW264.7 [5]): Dose-dependent effect; Activity (Influenza A virus [20]): inactive |
| CC(=O)N[C@H]1[C@H]([C@H](OC(=O)NCCCO)[C@H](O)CO)OC(C(=O)O)=C[C@@H]1NC(=N)N | 11.7 nM | Non-toxic | 105 nM | EC50 (Influenza A virus [12]): 820 nM |
| CC(=O)N[C@H]1[C@H]([C@H](OC(=O)NCCCOC(=O)c2cc(N)ccc2O)[C@H](O)CO)OC(C(=O)O)=C[C@@H]1NC(=N)N | 8.6 nM | Non-toxic | 3.3 nM | EC50 (Influenza A virus [12]): 430 nM; Activity (Influenza A virus [1]): Active; Activity (Mus musculus [7]): Active; Activity (RAW264.7 [3]): Dose-dependent effect; Activity (Mus musculus [8]): Active; Stability (Plasma [19]): Unstable; Activity (Influenza A virus [9]): inactive; Activity (RAW264.7 [5]): Dose-dependent effect |
| O=C(O)c1ccc2ccccc2c1O [CARBOXYNAPHTHOL] | > 100000 nM | Non-toxic | > 100000 nM |  |
| CC(=O)N[C@H]1[C@H]([C@H](O)[C@H](O)CO)OC(C(=O)OCCCOC(=O)c2ccc3ccccc3c2O)=C[C@@H]1NC(=N)N | 590 nM | Non-toxic |  | Stability (Plasma [21]): Unstable; Stability (Plasma [19]): Unstable |
| CC(=O)N[C@H]1[C@H]([C@H](OC(=O)NCCCNC(=O)c2ccc3ccccc3c2O)[C@H](O)CO)OC(C(=O)O)=C[C@@H]1NC(=N)N | 3.1 nM | Non-toxic | 6.6 nM |  |
| CC(=O)N[C@H]1[C@H]([C@H](OC(=O)NCCCNC(=O)/C=C/c2ccc(O)c(O)c2)[C@H](O)CO)OC(C(=O)O)=C[C@@H]1NC(=N)N | 41.3 nM | Non-toxic | 5.1 nM | Activity (Influenza A virus [13]): 100%; Activity (Influenza A virus [15]): 50%; Activity (Influenza A virus [16]): inactive; Stability (Plasma [22]): Stable; Activity (Influenza A virus [23]): Active; Stability (Plasma [24]): Stable; Activity (Influenza A virus [9]): Active |
| O=C(O)/C=C/c1ccc2c(c1)OCO2 | > 100000 nM | Non-toxic | > 100000 nM | Activity (RAW264.7 [3]): Dose-dependent effect; Activity (RAW264.7 [5]): Dose-dependent effect |
| CC(=O)N[C@H]1[C@H]([C@H](OC(=O)NCCCOC(=O)c2ccc3ccccc3c2O)[C@H](O)CO)OC(C(=O)O)=C[C@@H]1NC(=N)N | 0.7 nM | Non-toxic | 50 nM |  |
| CC(=O)N[C@H]1[C@H]([C@H](O)[C@H](O)CO)OC(C(=O)OCCCOC(=O)/C=C/c2ccc3c(c2)OCO3)=C[C@@H]1NC(=N)N | 3990 nM | Non-toxic | 28 nM |  |
| CC(=O)N[C@H]1[C@H]([C@H](O)[C@H](O)CO)OC(C(=O)OCCCOC(=O)c2cc(N)ccc2O)=C[C@@H]1NC(=N)N | 996 nM | Non-toxic | 16 nM |  |
